Reference: publication PMC5584980, “Deciphering HLA-I motifs across HLA peptidomes improves neo-antigen predictions and identifies allostery regulating HLA specificity” (PLoS Computational Biology, 2017)

System: HLA-B14:02 wt
Test: Binding stability assay, refolded HLA-I/peptide complex, ELISA
Parameters: species or system human
Experimental: W97R mutation was introduced into HLA-B14:02 wt by overlap extension PCR and confirmed by DNA sequencing. BL21(DE3)pLys bacterial cells were used to produce HLA-B14:02 wt and W97R as inclusion bodies. Four peptides with histidine or arginine at P2 (A[H/R]TKPRPAL, G[H/R]YDRSKSL, A[H/R]FAKSISL, H[H/R]FEKAVTL) were synthesized at the Peptide Facility (UNIL, Lausanne) with free N and C-termini (1mg of each peptide, > 80% purity). Peptides with histidine at P2 come from our HLA peptidomics data and were assigned to HLA-B15:18 by our mixture model algorithm. Based on our analysis of HLA sequence and structure, peptides with histidine at P2 are predicted to interact with HLA-B14:02 W97R, while peptides with arginine at P2 are predicted to bind better HLA-B14:02 wt.
Synthetic peptides were incubated separately with denaturated […] mutant refolded by dilution in the presence of biotinylated beta-2 microglobulin proteins at temperature T = 4°C for 48 hours. […] Negative controls consist of absence of peptides. koff were determined by fitting exponential curves to the light intensity values obtained by ELISA at different time points. […] For two peptides showing exceptionally high binding stability, only lower bounds on half-lives could be determined (dashed lines in Fig 5D).

With “AHTKPRPAL [synthetic HLA-B15:18 ligand from HLA peptidomics data, histidine at P2, free N and C-termini]” as the sequence, how does the “binding of the peptide” value read?
Its value is “fully abolished”.
